# Experimental data: ChEMBL document CHEMBL3608254, “Discovery of novel triazolobenzazepinones as γ-secretase modulators with central Aβ42 lowering in rodents and rhesus monkeys” (Bioorg Med Chem Lett, 2015)
# The source made the active and inactive calls. No cut-off for these calls is given here.
# Key:
# [1] = Inhibition of gamma-secretase-mediated cleavage of NotchdeltaE in human HeLa cells expressing NotchdeltaE assessed as intracellular release of Notch intracellular domain (NICD)/N-terminal luciferase by luminescent method; format: cell-based
# Gamma-secretase [2] = test: Inhibition of gamma-secretase in human SH-SY5Y cells expressing beta-APP C-terminal fragment SPA4CT assessed as decrease of amyloid beta-40 level by electrochemiluminescent method; format: cell-based
# Gamma-secretase [3] = test: Inhibition of gamma-secretase in human SH-SY5Y cells expressing beta-APP C-terminal fragment SPA4CT assessed as decrease of amyloid beta-42 level by electrochemiluminescent method; format: cell-based
# Mus musculus = test: Antialzheimer's disease activity in po dosed APP-YAC transgenic mouse assessed as reduction of amyloid beta-40/42 level in brain measured after 6 hrs; format: functional
# [4] = biological target: T1, Voltage-gated inwardly rectifying potassium channel KCNH2 (Homo sapiens, UniProt Q12809)
# T1 sequence (Q12809 whole entry): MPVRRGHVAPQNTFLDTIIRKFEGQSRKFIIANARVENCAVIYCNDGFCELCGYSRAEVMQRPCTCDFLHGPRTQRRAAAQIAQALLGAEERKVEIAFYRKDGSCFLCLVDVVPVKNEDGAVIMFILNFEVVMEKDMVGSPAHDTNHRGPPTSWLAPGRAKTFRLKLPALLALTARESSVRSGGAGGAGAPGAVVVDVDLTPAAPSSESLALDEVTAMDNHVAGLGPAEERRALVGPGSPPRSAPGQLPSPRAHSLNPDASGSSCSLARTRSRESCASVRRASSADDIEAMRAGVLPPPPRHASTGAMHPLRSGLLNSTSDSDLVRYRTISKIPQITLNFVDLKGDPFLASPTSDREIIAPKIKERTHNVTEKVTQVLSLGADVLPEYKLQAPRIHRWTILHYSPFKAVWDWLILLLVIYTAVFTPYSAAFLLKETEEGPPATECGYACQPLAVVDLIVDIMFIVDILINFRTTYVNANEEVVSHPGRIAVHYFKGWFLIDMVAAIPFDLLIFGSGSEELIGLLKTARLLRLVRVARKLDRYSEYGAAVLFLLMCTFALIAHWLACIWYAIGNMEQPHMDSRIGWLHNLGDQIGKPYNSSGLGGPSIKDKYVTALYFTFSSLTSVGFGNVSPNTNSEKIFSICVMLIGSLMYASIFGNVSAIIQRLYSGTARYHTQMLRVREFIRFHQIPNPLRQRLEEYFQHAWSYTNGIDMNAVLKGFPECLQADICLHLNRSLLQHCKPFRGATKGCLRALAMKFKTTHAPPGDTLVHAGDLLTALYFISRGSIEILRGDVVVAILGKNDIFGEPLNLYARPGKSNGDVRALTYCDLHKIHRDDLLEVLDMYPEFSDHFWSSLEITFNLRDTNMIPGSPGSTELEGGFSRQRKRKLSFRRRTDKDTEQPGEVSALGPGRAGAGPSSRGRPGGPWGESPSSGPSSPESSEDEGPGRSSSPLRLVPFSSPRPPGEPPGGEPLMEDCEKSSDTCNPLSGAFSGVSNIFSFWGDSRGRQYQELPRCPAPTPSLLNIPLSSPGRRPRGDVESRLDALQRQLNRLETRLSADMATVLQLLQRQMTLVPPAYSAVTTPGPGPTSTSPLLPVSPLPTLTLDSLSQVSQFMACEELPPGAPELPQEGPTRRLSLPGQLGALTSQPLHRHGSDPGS
# Description: Binding affinity to human ERG expressed in HEK cells by MK-499 radioligand displacement assay
# [5] = biological target: Sodium-dependent serotonin transporter (Homo sapiens, UniProt P31645); test: Inhibition of SERT (unknown origin)
# Rattus norvegicus [6] = test: Antialzheimer's disease activity in po dosed Sprague-Dawley rat assessed as reduction of amyloid beta-40/42 level in brain measured after 6 hrs; format: functional
# [7] = Volume of distribution at steady state in dog at 0.25 mg/kg, iv and 0.5 mg/kg, po; format: ADME, organism-based, Canis lupus familiaris; conditions: in vivo, read-out: Vdss
# [8] = AUC in cerebrospinal fluid of rhesus monkey cisterna-magna-ported model at 6 mg/kg bolus dose followed by 4 hrs infusion of 44 mg/kg, iv; format: ADME, organism-based, Macaca mulatta
# Rattus norvegicus [9] = test: Dose normalized AUC in Wistar-Han rat at 100 mg/kg, po; format: ADME, organism-based; conditions: in vivo
# [10] = Lipophilicity, log D of the compound; format: physicochemical; conditions: octanol/water
# [11] = Oral bioavailability in dog at 0.5 mg/kg; format: ADME, organism-based, Canis lupus familiaris; conditions: in vivo
# [12] = Volume of distribution at steady state in Sprague-Dawley rat at 1 mg/kg, iv and 2 mg/kg, po; format: ADME, organism-based; conditions: in vivo, read-out: Vdss
# CYP2C9 = CYP2C9 (Homo sapiens, UniProt P11712); test: Inhibition of CYP2C9 (unknown origin) at 10 uM; format: ADME
# CYP2C9, sequence (P11712 whole entry): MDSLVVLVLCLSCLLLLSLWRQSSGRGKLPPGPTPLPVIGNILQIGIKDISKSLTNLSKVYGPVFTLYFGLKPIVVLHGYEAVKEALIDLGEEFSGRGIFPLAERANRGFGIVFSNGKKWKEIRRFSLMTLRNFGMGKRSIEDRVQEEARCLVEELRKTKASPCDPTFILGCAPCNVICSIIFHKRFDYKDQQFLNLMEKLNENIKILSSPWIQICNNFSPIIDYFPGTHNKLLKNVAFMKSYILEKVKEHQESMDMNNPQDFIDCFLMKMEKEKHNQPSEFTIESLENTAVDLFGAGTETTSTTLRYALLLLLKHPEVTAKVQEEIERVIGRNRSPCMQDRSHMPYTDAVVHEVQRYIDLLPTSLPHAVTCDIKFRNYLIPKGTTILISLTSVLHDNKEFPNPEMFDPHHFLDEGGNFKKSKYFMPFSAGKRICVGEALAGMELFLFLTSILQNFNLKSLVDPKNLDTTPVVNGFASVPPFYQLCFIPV
# [13] = Solubility of the compound at pH 2; format: physicochemical; conditions: buffer
# [14] = Oral bioavailability in rhesus monkey at 0.5 mg/kg; format: ADME, organism-based, Macaca mulatta; conditions: in vivo
# [15] = Solubility of the compound at pH 7; format: physicochemical; conditions: buffer
# [16] = Drug level in Sprague-Dawley rat brain at 100 mg/kg, po after 6 hrs; format: ADME, organism-based; conditions: read-out: Drug uptake
# CYP2D6 = CYP2D6 (Homo sapiens, UniProt P10635); test: Inhibition of CYP2D6 (unknown origin) at 10 uM; format: ADME
# CYP2D6, sequence (P10635 whole entry): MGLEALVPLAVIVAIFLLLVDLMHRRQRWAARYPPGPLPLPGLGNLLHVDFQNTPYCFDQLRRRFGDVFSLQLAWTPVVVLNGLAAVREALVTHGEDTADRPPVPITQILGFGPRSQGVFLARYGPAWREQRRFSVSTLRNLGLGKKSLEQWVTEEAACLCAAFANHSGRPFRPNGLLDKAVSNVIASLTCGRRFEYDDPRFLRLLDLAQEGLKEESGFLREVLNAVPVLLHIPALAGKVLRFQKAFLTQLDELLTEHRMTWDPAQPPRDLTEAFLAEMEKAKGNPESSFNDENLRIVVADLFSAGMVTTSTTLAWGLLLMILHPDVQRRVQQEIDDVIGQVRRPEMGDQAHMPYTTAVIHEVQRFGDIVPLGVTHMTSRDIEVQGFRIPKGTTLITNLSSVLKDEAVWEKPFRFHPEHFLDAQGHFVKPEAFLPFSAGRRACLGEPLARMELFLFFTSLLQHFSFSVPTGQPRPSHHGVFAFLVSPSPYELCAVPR
# [17] = Apparent permeability of the compound in pig LLC-PK1 cells; format: ADME, cell-based, Sus scrofa
# [18] = Half life in human hepatocytes; format: ADME, cell-based, Hepatocyte
# [19] = Fraction unbound in dog; format: ADME, organism-based, Canis lupus familiaris; conditions: in vivo
# Plasma = test: AUC in plasma of rhesus monkey cisterna-magna-ported model at 6 mg/kg bolus dose followed by 4 hrs infusion of 44 mg/kg, iv; format: ADME, organism-based, Macaca mulatta; conditions: in vivo
# CYP3A4 [20] = biological target: T2, CYP3A4 (Homo sapiens, UniProt P08684); test: Inhibition of CYP3A4 (unknown origin) at 10 uM; format: ADME
# T2 sequence (P08684 whole entry): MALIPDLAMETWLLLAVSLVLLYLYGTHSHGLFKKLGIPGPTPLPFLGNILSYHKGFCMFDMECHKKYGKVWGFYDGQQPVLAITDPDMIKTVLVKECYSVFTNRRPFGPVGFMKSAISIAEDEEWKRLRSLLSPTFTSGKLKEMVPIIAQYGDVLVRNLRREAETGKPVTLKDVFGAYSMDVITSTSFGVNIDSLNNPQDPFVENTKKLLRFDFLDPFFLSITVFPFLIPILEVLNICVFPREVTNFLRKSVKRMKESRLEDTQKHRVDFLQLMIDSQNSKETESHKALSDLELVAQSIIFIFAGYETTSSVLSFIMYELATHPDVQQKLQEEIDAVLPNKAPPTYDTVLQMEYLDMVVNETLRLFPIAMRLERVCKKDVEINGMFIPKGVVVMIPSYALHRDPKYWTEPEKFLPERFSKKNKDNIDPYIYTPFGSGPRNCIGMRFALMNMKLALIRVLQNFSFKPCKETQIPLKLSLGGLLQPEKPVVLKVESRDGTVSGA
# [21] = Half life in rhesus monkey at 0.25 mg/kg, iv; format: ADME, organism-based, Macaca mulatta; conditions: in vivo
# Rhesus monkey [22] = test: Antialzheimer's disease activity in rhesus monkey cisterna-magna-ported model assessed as reduction of amyloid beta-42 level in CSF at 6 mg/kg bolus dose followed by 4 hrs infusion of 44 mg/kg, iv measured up to 20 hrs; format: functional, organism-based; conditions: Macaca mulatta
# [23] = biological target: T3, Nuclear receptor subfamily 1 group I member 2 (Homo sapiens, UniProt O75469); test: Activation of PXR (unknown origin); format: ADME
# T3 sequence (O75469 whole entry): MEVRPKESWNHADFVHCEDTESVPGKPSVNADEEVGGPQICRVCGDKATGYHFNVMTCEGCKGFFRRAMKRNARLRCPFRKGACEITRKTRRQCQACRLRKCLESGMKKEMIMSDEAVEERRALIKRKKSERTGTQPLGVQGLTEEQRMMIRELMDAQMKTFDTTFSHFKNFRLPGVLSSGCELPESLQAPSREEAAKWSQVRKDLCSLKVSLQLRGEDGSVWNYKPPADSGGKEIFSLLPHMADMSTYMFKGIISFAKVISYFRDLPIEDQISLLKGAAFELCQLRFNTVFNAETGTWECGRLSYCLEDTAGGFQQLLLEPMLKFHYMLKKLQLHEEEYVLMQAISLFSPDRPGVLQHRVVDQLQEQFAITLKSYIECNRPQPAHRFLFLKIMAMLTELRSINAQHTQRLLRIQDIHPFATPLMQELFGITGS
# [24] = Half life in Sprague-Dawley rat at 1 mg/kg, iv; format: ADME, organism-based; conditions: in vivo
# [25] = Half life in rhesus monkey hepatocytes; format: ADME, cell-based, Macaca mulatta, Hepatocyte
# [26] = Fraction unbound in rat; format: ADME, organism-based; conditions: in vivo
# [27] = Half life in rat hepatocytes; format: ADME, cell-based, Hepatocyte
# [28] = Fraction unbound in human; format: ADME, organism-based; conditions: in vivo
# [29] = Half life in dog at 0.25 mg/kg, iv; format: ADME, organism-based, Canis lupus familiaris; conditions: in vivo
# CYP3A4 [30] = biological target: T2, CYP3A4; test: Time dependent inhibition of CYP3A4 (unknown origin) at 50 uM; format: ADME
# [31] = Half life in dog hepatocytes; format: ADME, cell-based, Canis lupus familiaris, Hepatocyte
# Rattus norvegicus [32] = test: Dose normalized AUC (0 to 24 hrs) in Sprague-Dawley rat at 2 mg/kg, po; format: ADME, organism-based; conditions: in vivo
# Rhesus monkey [33] = test: Antialzheimer's disease activity in rhesus monkey cisterna-magna-ported model assessed as reduction of amyloid beta-40 level in CSF at 6 mg/kg bolus dose followed by 4 hrs infusion of 44 mg/kg, iv measured up to 20 hrs; format: functional, organism-based; conditions: Macaca mulatta
# [34] = Fraction unbound in rhesus monkey; format: ADME, organism-based, Macaca mulatta; conditions: in vivo
# Rattus norvegicus [35] = test: Antialzheimer's disease activity in Sprague-Dawley rat assessed as reduction of amyloid beta-42 level in brain at 100 mg/kg, po after 6 hrs relative to control; format: functional
# Rattus norvegicus [36] = test: Oral bioavailability in Sprague-Dawley rat at 2 mg/kg; format: ADME, organism-based; conditions: in vivo
# [37] = biological target: T1, Voltage-gated inwardly rectifying potassium channel KCNH2; test: Inhibition of human ERG expressed in HEK cells assessed as reduction in IKr current by patchXpress assay; format: cell-based, HEK293
# [38] = Plasma clearance in Sprague-Dawley rat at 1 mg/kg, iv and 2 mg/kg, po; format: ADME, organism-based
# [39] = Volume of distribution at steady state in rhesus monkey at 0.25 mg/kg, iv and 0.5 mg/kg, po; format: ADME, organism-based, Macaca mulatta; conditions: in vivo, read-out: Vdss
# Canis familiaris = test: Dose normalized AUC (0 to 24 hrs) in dog at 0.5 mg/kg, po; format: ADME, organism-based, Canis lupus familiaris; conditions: in vivo
# [40] = Plasma clearance in dog at 0.25 mg/kg, iv and 0.5 mg/kg, po; format: ADME, organism-based, Canis lupus familiaris
smiles,measurement,setting,value
COc1cc(-c2cn(C3CCc4ccccc4NC3=O)nn2)ccc1-n1cnc(C)c1 (stereo not drawn),IC50,[1],33 µM
same,IC50,Gamma-secretase [2],4.72 µM
same,IC50,Gamma-secretase [3],0.39 µM
COc1cc(-c2cn(C3CCc4ccccc4N(CCF)C3=O)nn2)ccc1-n1cnc(C)c1 (stereo not drawn),IC50,[1],> 50 µM
same,IC50,Gamma-secretase [2],3.14 µM
same,IC50,Gamma-secretase [3],0.44 µM
COc1cc(-c2cn(C3CCc4ccccc4N(C)C3=O)nn2)ccc1-n1cnc(C)c1 (stereo not drawn),IC50,[1],> 50 µM
same,IC50,Gamma-secretase [2],3.08 µM
same,IC50,Gamma-secretase [3],0.43 µM
COc1cc(-c2cn(C3CCc4ccccc4N(Cc4ccncc4)C3=O)nn2)ccc1-n1cnc(C)c1 (racemic),IC50,[1],> 50 µM
same,IC50,Gamma-secretase [2],6.75 µM
same,IC50,Gamma-secretase [3],1.19 µM
COc1cc(-c2cn(C3CCc4ncccc4N(CC(F)(F)F)C3=O)nn2)ccc1-n1cnc(C)c1 (stereo not drawn),Activity,Mus musculus,Active
same,IC50,[1],41.8 µM
same,IC50,Gamma-secretase [2],0.94 µM
same,IC50,Gamma-secretase [3],0.15 µM
same,IC50,[4],> 50 µM
same,inhibition,[5],inactive
same,Activity,Rattus norvegicus [6],Active
COc1cc(-c2cn(C3CCc4cc(F)ccc4N(CC(F)(F)F)C3=O)nn2)ccc1-n1cnc(C)c1 (stereo not drawn),Activity,Mus musculus,Active
same,IC50,[1],34.1 µM
same,IC50,Gamma-secretase [2],0.19 µM
same,IC50,Gamma-secretase [3],0.04 µM
same,IC50,[4],2.68 µM
same,Activity,Rattus norvegicus [6],Active
COc1cc(-c2cn(C3CCc4c(ccc(Br)c4F)N(CC(F)(F)F)C3=O)nn2)ccc1-n1cnc(C)c1 (stereo not drawn),Activity,Mus musculus,Active
same,IC50,[1],> 50 µM
same,IC50,Gamma-secretase [2],0.05 µM
same,IC50,Gamma-secretase [3],0.01 µM
same,IC50,[4],0.53 µM
same,Activity,Rattus norvegicus [6],Active
COc1cc(-c2cn(C3CCc4ccccc4N(Cc4ccccn4)C3=O)nn2)ccc1-n1cnc(C)c1 (racemic),IC50,[1],> 50 µM
same,IC50,Gamma-secretase [2],5.4 µM
same,IC50,Gamma-secretase [3],1.08 µM
COc1cc(-c2cn(C3CCc4ccccc4N(CC4CC4)C3=O)nn2)ccc1-n1cnc(C)c1 (stereo not drawn),IC50,[1],25.6 µM
same,IC50,Gamma-secretase [2],3.98 µM
same,IC50,Gamma-secretase [3],0.37 µM
COc1cc(-c2cn(C3CCc4ccccc4N(Cc4ccccc4)C3=O)nn2)ccc1-n1cnc(C)c1 (racemic),IC50,[1],> 50 µM
same,IC50,Gamma-secretase [2],2.01 µM
same,IC50,Gamma-secretase [3],0.24 µM
COc1cc(-c2cn(C3CCc4c(F)cccc4N(CC(F)(F)F)C3=O)nn2)ccc1-n1cnc(C)c1 (stereo not drawn) [GSM1],Vd,[7],14 L/kg
same,ED50,Mus musculus,15 mg/kg
same,AUC at 4 h,[8],2200 nM·h
same,AUC/dose,Rattus norvegicus [9],8.8 µM·kg·h/mg
same,logD,[10],3.3
same,bioavailability,[11],< 5%
same,IC50,[1],39.8 µM
same,Vd,[12],4.8 L/kg
same,inhibition at 10 µM,CYP2C9,68%
same,solubility,[13],180 µM
same,bioavailability,[14],< 5%
same,solubility,[15],5.6 µM
same,concentration at 6 h,[16],35 µM
same,inhibition at 10 µM,CYP2D6,28%
same,Papp,[17],250 nm/s
same,half-life,[18],1.02 h
same,fraction unbound,[19],0.058
same,AUC,Plasma,183000 nM·h
same,inhibition at 10 µM,CYP3A4 [20],42%
same,half-life,[21],1.2 h
same,Activity,Rhesus monkey [22],Active
same,EC50,[23],> 30 µM
same,half-life,[24],0.8 h
same,half-life,[25],0.817 h
same,fraction unbound,[26],0.037
same,IC50,[4],2.61 µM
same,half-life,[27],0.6 h
same,fraction unbound,[28],0.036
same,half-life,[29],6.2 h
same,inhibition at 50 µM,CYP3A4 [30],18%
same,half-life,[31],1.12 h
same,AUCt/dose,Rattus norvegicus [32],1.6 µM·kg·h/mg
same,Activity,Rhesus monkey [33],inactive
same,fraction unbound,[34],0.057
same,inhibition in vivo at 100 mg/kg,Rattus norvegicus [35],92%
same,F,Rattus norvegicus [36],190%
same,IC50,[37],12.9 µM
same,IC50,[5],0.032 µM
same,clearance,[38],2.28 L/h/kg
same,Vd,[39],2 L/kg
same,AUCt/dose,Canis familiaris,0.1 µM·kg·h/mg
same,clearance,[40],4.92 L/h/kg
same,ED50,Rattus norvegicus [6],15 mg/kg
